Laboratory results: ChEMBL document CHEMBL1201862, “PubChem BioAssay data set” (2004)
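48-hour exposure; five concentrations; linearly interpolated endpoints. Abbreviation: GI50, concentration required for 50% inhibition of growth.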 Active and inactive are the calls of the source. No stated cut-off is given here; in the data, active = GI50 up to about 1.1 µM and inactive = higher.

What was measured:
Assay in all cases: growth of human tumour cells (NCI), 48 h
[1] = tested on: NCI/ADR-RES
[2] = tested on: DLD-1
[3] = tested on: A549
[4] = tested on: T47D
[5] = tested on: IGROV-1
[6] = tested on: HCC 2998
[7] = tested on: TK-10
[8] = tested on: SK-MEL-28
[9] = tested on: A498
[10] = tested on: Hs-578T
[11] = tested on: KM-20L2
[12] = tested on: KM12
[13] = tested on: U-251
[14] = tested on: UO-31
[15] = tested on: NCI-H226
[16] = tested on: M14
[17] = tested on: UACC-62
[18] = tested on: SK-MEL-5
[19] = tested on: MOLT-4
[20] = tested on: RPMI-8226

Structure (SMILES)	GI50 [1]	GI50 [2]	GI50 [3]	GI50 [4]	GI50 [5]	GI50 [6]	GI50 [7]	GI50 [8]	GI50 [9]	GI50 [10]	GI50 [11]	GI50 [12]	GI50 [13]	GI50 [14]	GI50 [15]	GI50 [16]	GI50 [17]	GI50 [18]	GI50 [19]	GI50 [20]
CCCCCCCCCCCCC(O)C1CCC(C(O)CCCCC(O)CCCCCC2CC(CC(C)=O)C(=O)O2)O1 (configuration not stated)	290 nM (active)	6.21 µM (inactive)	3.21 µM (inactive)	2.77 µM (inactive)	5.78 µM (inactive)	8.18 µM (inactive)	4.99 µM (inactive)	4.7 µM (inactive)	4.52 µM (inactive)	1.69 µM (inactive)	4.29 µM (inactive)	1.63 µM (inactive)	3.11 µM (inactive)	2.27 µM (inactive)	1.82 µM (inactive)	7.29 µM (inactive)	1.7 µM (inactive)	93.1 nM (active)	–	–
CC(=O)NC1C(OCc2ccccc2)OC(CO)C(O)C1OC(C)C(=O)NC(C)C(=O)N[C@@H](CCC(=O)OCCCNC1c2ccccc2Nc2cccc([N+](=O)[O-])c21)C(N)=O (some centres not stated)	14.5 nM (active)	< 0.01 µM (active)	< 0.01 µM (active)	0.174 µM (active)	0.0222 µM (active)	< 0.01 µM (active)	< 0.01 µM (active)	< 0.01 µM (active)	< 0.01 µM (active)	0.0216 µM (active)	< 0.01 µM (active)	< 0.01 µM (active)	< 0.01 µM (active)	< 0.01 µM (active)	–	< 0.01 µM (active)	< 0.01 µM (active)	< 10 nM (active)	10.2 nM (active)	< 10 nM (active)
